Data reported in patent US9700533B2, “Maternal chelation for embryo, fetal and infant benefit” (priority 2005, dated 2017).
Read-outs that look alike come from different tables or passages of the source.

What was measured:
[1] = Chelation-provoked urine test, urinary tungsten; type: in vivo, human; settings: Case 7, 6 hour urine
Method: (§1) The terms “diagnostic provocation” and “chelation-provoked urine tests” and related terms refer to a procedure whereby the patient is administered one of more dosages of chelators, after which the patient's urine is collected for a defined period of time. The collected urine is analyzed for metal content, the metal having been removed from the patient's body by the chelators. The results of this procedure can indicate which metals are present in the patient's body and the approximate levels of the metals, which is subsequently used in designing a course of chelation therapy.
(§2) The metals may be measured with or without prior chelation provocation. The standard values accepted by medical laboratories are measured without chelation provocation. Treatment with chelation medication mobilizes metal stores within in the body to be detected in the urine, thus values obtained post-provocation will be increased.

[2] = Chelation-provoked urine test, metals revealed (in words); settings: for metals excreted on provocation: Case 9, postpartum
Method: as §1, §2

[3] = Case 14
Method: as §1, §2

[4] = Chelation-provoked urine test, urinary uranium; type: in vivo, human; settings: for urinary uranium, times the reference range: Case 9
Method: as §1, §2

[5] = Chelation-provoked urine test, urinary nickel; type: in vivo, human
Method: as §1, §2

[6] = Chelation-provoked urine test, urinary tin; type: in vivo, human; settings: for urinary tin: Case 14
Method: as §1, §2

[7] = Chelation-provoked urine test, urinary lead
Method: as §1, §2

[8] = Chelation-provoked urine test, urinary cadmium; type: in vivo, human
Method: as §1, §2

[9] = Case 14; remark: listed apart in the source
Method: as §1, §2

[10] = not given; remark: listed apart in the source
[11] = Maternal chelation treatment, pregnancy, child and patient outcome; type: in vivo, human; settings: for chronic fatigue / neurological development of the baby: Case 5; for chronic fatigue: calcium EDTA + vitamin C IV together with oral DMSA; for neurological development of the baby: parent treated preconceptionally with calcium EDTA + vitamin C IV and oral DMSA
[12] = Case 5
Method: as §1, §2

[13] = Case 5, DMPS chelation provocation, before treatment
[14] = Case 5, DMPS provocation, previously (before treatment)
[15] = Case 14, DMPS provocation October 2003, before treatment
[16] = Case 14, DMPS series, follow up October 2005 after oral DMSA and essential daily defense
[17] = Case 14, after series of intravenous DMPS chelation treatments October 2003 to May 2004
[18] = DMPS provocation October 2003, before treatment
[19] = DMPS series, follow up October 2005 after oral DMSA and essential daily defense
[20] = after series of intravenous DMPS chelation treatments October 2003 to May 2004
[21] = Case 7, one 300-mg capsule DMPS, 6 hour urine
[22] = DMSA 1000 mg PO x1, 6 hour urine
[23] = Case 7, one 250-mg capsule DMSA orally, 6 hour urine
[24] = Case 2, oral DMSA 250 mg three times a day, 24 hour urine
[25] = Case 4, after 4 months oral DMSA, 4 x 250 mg three times daily, 3 days per week
[26] = Case 4, four capsules DMSA 250 mg, 6 hour urine, before treatment
[27] = 3 grams calcium EDTA in 100 cc NS over 30 minutes, 6 hour urine
[28] = Case 14, EDTA series, June 2004 after intravenous EDTA and DMPS chelation treatments
[29] = Case 14, EDTA series, long-term follow up October 2005 after a little DMSA with essential daily defense
[30] = Case 14, intravenous EDTA provocation January 2004, during the treatment period
[31] = EDTA series, June 2004 after intravenous EDTA and DMPS chelation treatments
[32] = EDTA series, long-term follow up October 2005 after a little DMSA with essential daily defense
[33] = intravenous EDTA provocation January 2004, during the treatment period
[34] = Case 5, EDTA provocation, before treatment
[35] = Case 5, EDTA provocation, previously (before treatment)
[36] = Case 13, 3 grams EDTA and 3 grams vitamin C intravenous push, 6 hour collection

Compound: O=S(=O)(O)CC(S)CS (stereo not shown) [DMPS, Dimercaptopropanesulfonic Acid]
- urinary tungsten ([1]; one 300-mg capsule DMPS): 7.07 (normal <0.34)
- metals revealed on provocation ([2]; Case 10, DMPS 300 mg PO x1, 6 hour urine): elevated levels of lead, mercury, aluminum, antimony, cadmium, nickel, tin, tungsten and uranium
- metals revealed on provocation ([2]; Case 12, DMPS 300 mg PO x2, 6 hour urine): marked elevation of nickel as well as abnormally elevation of arsenic, cadmium and lead
- urinary antimony [13]: 0.84 (normal <0.14) mcg/g creatinine
- urinary antimony, times normal [14]: 6 × normal
- urinary antimony [15]: 0.48 (normal <0.14) mcg/g creatinine
- urinary antimony [16]: 0.18 mcg/g creatinine
- urinary antimony [17]: 0.05 mcg/g creatinine
- urinary arsenic [3, 18]: 159 (normal <50) mcg/g creatinine
- urinary arsenic [3, 19]: 34 mcg/g creatinine
- urinary arsenic [3, 20]: 20 mcg/g creatinine
- urinary uranium [4, 21]: 0.034 (normal <0.013)
- urinary uranium [4, 15]: 0.042 (normal <0.026) mcg/g creatinine
- urinary uranium [4, 16]: 3 mcg/g creatinine
- urinary uranium [4, 17]: 0 mcg/g creatinine
- urinary nickel [5, 21]: 132 (normal <9.5)
- urinary nickel [5, 15]: 9.3 (normal <9.5) mcg/g creatinine
- urinary nickel [5, 16]: 0.7 mcg/g creatinine
- urinary nickel [5, 17]: 3.2 mcg/g creatinine
- urinary tin [6, 18]: 10.4 (normal <2.04) mcg/g creatinine
- urinary tin [6, 19]: 3.03 mcg/g creatinine
- urinary tin [6, 20]: 0.4 mcg/g creatinine
- urinary lead [7, 13]: 6.39 (normal <1.41) mcg/g creatinine
- urinary lead, times normal [7, 14]: 4 × normal
- urinary lead [7, 21]: 4.6 (normal <1.41)
- urinary lead [7, 15]: 7.9 (normal <1.41) mcg/g creatinine
- urinary lead [7, 16]: 2.6 mcg/g creatinine
- urinary lead [7, 17]: 0.9 mcg/g creatinine
- urinary cadmium [8, 15]: 0.82 (normal <0.64) mcg/g creatinine
- urinary cadmium [8, 16]: 0.17 mcg/g creatinine
- urinary cadmium [8, 17]: 0.16 mcg/g creatinine
- urinary thorium [9, 18]: 0 (normal <0.124) mcg/g creatinine
- urinary thorium [9, 19]: 0 mcg/g creatinine
- urinary thorium [9, 20]: 0.019 mcg/g creatinine
- urinary mercury [10, 13]: 38.55 (normal <6.97) mcg/g creatinine
- urinary mercury, times normal [10, 14]: 5 × normal
- urinary mercury [10, 15]: 7.3 (normal <2.14) mcg/g creatinine
- urinary mercury [10, 16]: 4.6 mcg/g creatinine
- urinary mercury [10, 17]: 6 mcg/g creatinine

Compound: O=C(O)C(S)C(S)C(=O)O (stereo not shown) [DMSA, Dimercaptosuccinic Acid]
- urinary tungsten ([1]; one 250-mg capsule DMSA orally): 6.41 (normal <0.34) mcg/g creatinine
- metals revealed by chelation-provoked urine test ([2]; Case 6, oral DMSA challenge three days after delivery): presence of both lead and mercury
- metals excreted on provocation [2, 22]: excretion of a number of metals, including lead, mercury, cadmium and uranium
- metals revealed on challenge ([2]; Case 10, DMSA 250 mg PO x1, 6 hour urine): elevated amounts of lead, aluminum, antimony, barium, nickel, gallium, tin, tungsten, and uranium
- metals revealed on provocation ([2]; Case 11, 1000 mg DMSA orally x1, 6 hour urine): elevated levels of lead, mercury, tin, uranium and tungsten
- chronic fatigue during treatment ([11]; Case 4, during 4 months oral DMSA): chronic fatigue resolved
- chronic fatigue [11]: chronic fatigue improved
- neurological development of the baby [11]: above average neurological development
- urinary uranium [4, 23]: 0.05 (normal <0.031) mcg/g creatinine
- urinary uranium, times the reference range [4, 22]: > 100 × the reference range
- urinary nickel [5, 23]: 77 (normal <9.5) mcg/g creatinine
- urinary tin after provocation [6, 24]: 9 mcg/g creatinine
- urinary tin, follow up provocation [6, 25]: 0.9 mcg/g creatinine
- provoked urinary tin [6, 26]: 12.5 mcg/g creatinine
- follow-up chelation-provoked urine, total body lead ([7]; Case 1, after 15 cycles DMSA three capsules three times a day, three days a week): a decrease in total body lead
- urinary lead concentration on provocation ([7]; Case 1, oral DMSA 250 mg three times a day, 24 hour urine): 20 mcg/g creatinine
- urinary lead concentration after provocation [7, 24]: 14 mcg/g creatinine
- urinary lead, follow up provocation [7, 25]: 1.34 mcg/g creatinine
- provoked urinary lead [7, 26]: 13.6 mcg/g creatinine
- urinary lead [7, 23]: 4.79 (normal <1.41) mcg/g creatinine
- urinary cadmium, follow up provocation [8, 25]: 0.18 mcg/g creatinine
- provoked urinary cadmium [8, 26]: 1.79 mcg/g creatinine

Compound: O=C(O)CN(CCN(CC(=O)O)CC(=O)O)CC(=O)O [EDTA, Ethylenediamine Tetra-acetic Acid]
- metals excreted on provocation [2, 27]: significant excretion of lead, mercury, cadmium and uranium
- metals revealed on provocation ([2]; Case 11, 3 grams calcium EDTA in 100 cc normal saline IV over 30 minutes, 6 hour urine): elevated levels of lead, mercury, aluminum, cadmium, gadolinium, gallium, tin, tungsten, and uranium
- urinary aluminum ([12]; EDTA provocation, before treatment): 176.8 (normal <98.7) mcg/g creatinine
- urinary aluminum, times normal ([12]; EDTA provocation, previously (before treatment)): 2 × normal
- urinary aluminum, times normal ([12]; repeat EDTA provocation after calcium EDTA + vitamin C IV and oral DMSA treatment): 0.2 × normal
- child outcome after delivery ([11]; Case 8, oral EDTA 3000 mg per day with vitamin C, selenium and garlic): healthy and neurologically normal
- delivery outcome ([11]; Case 8, parent with lead and mercury, oral EDTA 3000 mg per day with vitamin C 5000 mg per day, selenium 200 micrograms three times per day, garlic 6000 mg per day): normal delivery with no evidence of fetal distress
- neurological development of the child ([11]; Case 13, child, parents had ten intravenous EDTA chelations): admirable neurological development
- urinary antimony [28]: 0.15 mcg/g creatinine
- urinary antimony [29]: 0.09 mcg/g creatinine
- urinary antimony [30]: 0.18 mcg/g creatinine
- urinary arsenic [3, 31]: 32 mcg/g creatinine
- urinary arsenic [3, 32]: 46 mcg/g creatinine
- urinary arsenic [3, 33]: 90 mcg/g creatinine
- urinary uranium [4, 34]: 0.33 (normal <0.013) mcg/g creatinine
- urinary uranium, times the reference range [4, 27]: > 40 × the reference range
- urinary uranium [4, 29]: 0.012 mcg/g creatinine
- urinary nickel [5, 34]: 36.9 (normal <9.5) mcg/g creatinine
- urinary nickel, times normal [5, 35]: 4 × normal
- urinary nickel, times normal ([5]; Case 5, repeat EDTA provocation after calcium EDTA + vitamin C IV and oral DMSA treatment): 3 × normal
- urinary nickel [5, 28]: 30 mcg/g creatinine
- urinary nickel [5, 29]: 26 mcg/g creatinine
- urinary nickel [5, 30]: 41 mcg/g creatinine
- urinary tin [6, 31]: 0.3 mcg/g creatinine
- urinary tin [6, 32]: 0.4 mcg/g creatinine
- urinary tin [6, 33]: 0.6 mcg/g creatinine
- urinary lead [7, 34]: 25.14 (normal <1.41) mcg/g creatinine
- urinary lead, times normal [7, 35]: 18 × normal
- urinary lead, times normal ([7]; Case 5, repeat EDTA provocation after 3 g calcium EDTA + 3 g vitamin C IV two times per week and DMSA 500 mg per day orally): 8 × normal
- urinary lead [7, 36]: 6.15 mcg/g creatinine
- urinary lead [7, 28]: 5.5 mcg/g creatinine
- urinary lead [7, 29]: 7.97 mcg/g creatinine
- urinary lead [7, 30]: 4.6 mcg/g creatinine
- urinary cadmium [8, 34]: 3.18 (normal <0.76) mcg/g creatinine
- urinary cadmium [8, 36]: 0.86 mcg/g creatinine
- urinary cadmium [8, 28]: 1.75 mcg/g creatinine
- urinary cadmium [8, 29]: 2.66 mcg/g creatinine
- urinary cadmium [8, 30]: 1.59 mcg/g creatinine
- urinary thorium [9, 31]: 0.06 mcg/g creatinine
- urinary thorium [9, 32]: 0 mcg/g creatinine
- urinary thorium [9, 33]: 0.22 mcg/g creatinine
- urinary mercury [10, 36]: 3.09 mcg/g creatinine
- urinary mercury [10, 28]: 0 mcg/g creatinine
- urinary mercury [10, 29]: 9.4 mcg/g creatinine
- urinary mercury [10, 30]: 0 mcg/g creatinine

Compound: CC(=O)N[C@@H](CS)C(=O)O [NAC, N-Acetyl-Cysteine]
- outcome of subsequent child ([11]; Case 3, 500 mg oral NAC per day throughout pregnancy, also vitamin C and selenium, previous child with attention deficit disorder): did not have attention deficit disorder

Compound: O=C([O-])CN(CCN(CC(=O)[O-])CC(=O)[O-])CC(=O)[O-].[Ca+2].[Na+].[Na+] [calcium EDTA]
- chronic fatigue [11]: chronic fatigue improved
- neurological development of the baby [11]: above average neurological development
